In the experiment the test system is Peripheral blood mononuclear cells (pBMC) from a patient with chronic lymphatic leukaemia. Nature of the experiment: Cytotoxicity of fludarabine phosphate on mononuclear cells, flow cytometry with fixed volume acquisition (PI exclusion). Particulars: 96 h; for relative cell survival: 100% = without fludarabine phosphate. The experiment is classed as cell-based, human. How it is done:
The peripheral blood mononuclear cells (pBMC) used in the examples were isolated from peripheral blood samples as described before (Staib, P. et al., Br. J. Haematol., 128(6):783-91 (2005)). The necessary peripheral blood (PB) samples from adult patients diagnosed with chronic lymphatic leukaemia (CLL) were collected into heparin during routine diagnosis prior to administration of chemotherapy.
Plate precoating with different amounts of fludarabine phosphate: 50 μl/well of an aqueous fludarabine phosphate solution were given in a 96-well microtiter plate (Greiner BioOne, Frickenhausen, Germany). Four different fludarabine phosphate concentrations (25; 8.33; 2.78; 0.93 μg/ml) were used. The control wells were kept empty. The plates were placed into an exsiccator and dried under vacuum for 8 h.
Peripheral blood mononuclear cells (pBMC) from a patient with chronic lymphatic leukaemia were isolated from the PB samples as described before (Staib, P. et al., Br. J. Haematol., 128(6):783-91 (2005)), resuspended in RPMI 1640 medium (Biochrom, Berlin, Germany) containing 20 vol. % fetal calf serum (FCS; Biochrom, Berlin, Germany) and added into the precoated 96-well plate with a final cell concentration of 10,000 cells/well and a volume of 100 μl. The plates were then agitated for 15 min in order to solubilize the dried fludarabine phosphate. Subsequently, the plates were incubated for 96 h (37° C., 5% CO2, humidified atmosphere). Thereafter, 50 μl of an 11 μM propidium iodide (PI)-solution in 0.9% aqueous NaCl solution (NaCl 0.9%) (Invitrogen, Leiden, Netherlands) were added and incubated for 15 min at room temperature. PI is a standard flow cytometric viability probe and is used to distinguish viable from nonviable cells. Viable cells with intact membranes exclude PI, whereas the membranes of dead and damaged cells are permeable to PI. PI only stains cells with compromised cell membrane, whilst live cells which have intact membranes are not stained by PI.
The plates were then analyzed using a FACSArray (BD Biosciences, San Jose, Calif., USA) flow cytometer. The following instrument settings were used:
2.0 μl/s sample flow rate
20 μl sample volume (n. b.: this is no absolute amount, but the set value of the instrument. Thus, the actual volume aspirated and analyzed by the instrument may be higher or lower than 20 μl: however, this actual volume is invariant from sample to sample during the analysis.)
500,000 maximum events (i.e. the number of maximum events exceeds the actual cell number in the sample considerably)
An identical fixed volume (preset sample volume on instrument: 20 μl) was aspirated from each sample and the absolute amount of living cells was counted. Living cells were defined as events with cellular light scatter characteristics and being negative for PI.
After switch-on and before analyzing a new kind of sample the flow cytometer must be re-calibrated. […] In addition cut-off values can be defined. Signals below this cut-off will be excluded from data acquisition. All cells with signal intensities above the cut-off are counted. The rectangle shown in FIG. 1 defines an area of signal intensities (FSC signal and PI signal) that is suitable for counting viable cells. All cells within this rectangle are counted.
For orientation: Flow cytometry measures light scatter and fluorescence of single cells or particles in a stream.

Setting [1] is: 12.50 μg/ml final concentration.

From patent publication US20100075370A1, “METHOD FOR DETERMINATION OF CELL VIABILITY BY USING FLOW CYTOMETRY WITH FIXED VOLUME ACQUISITION” (TUMORTEC GMBH, priority 2006, published 2010) come the findings set out here.

As for `Nc1nc(F)nc2c1ncn2[C@@H]1O[C@H](COP(=O)(O)O)[C@@H](O)[C@@H]1O` [Fludarabine phosphate, 2-Fluoro-9-(5-O-phosphono-β-D-arabinofuranosyl)-9H-purin-6-amine], the “Total living cells counted in the fixed volume” value reads like this: (0.46 μg/ml final concentration) 1,725; (1.39 μg/ml final concentration) 758; (4.17 μg/ml final concentration) 347; under setting [1], 186. Besides, the relative cell survival by setting is: (0.46 μg/ml final concentration) 41%; (1.39 μg/ml final concentration) 18%; (4.17 μg/ml final concentration) 8%; under setting [1], 4%; (12.50 μg/ml final concentration, listed as fludarabine phosphate) 4%.
